Measured values taken from PubChem BioAssay AID1963963 (Molecular Pharmacology Branch, DTP, NCI, 2024).
pIC50: −log10 of the molar value.

Tested on: 958667-338-R-J2-PDC tumor spheroids viability
Test: Anticancer human tumor 958667-338-R-J2-PDC patient-derived colon adenocarcinoma cell line growth inhibition [PI3K]
Conditions: spheroids with HUVEC and MSC; for pIC50: curve of first compound; for viability, T/C: stronger effect = lower value; active = viability on the fitted dose curve at most 10% of control; inactive = the rest
Outline: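 Tumor cells were combined with HUVEC and MSCs into spheroids, then dosed with PI3K-inhibitor combinations over half-log ranges capped near clinical Cmax or 10 microM.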

[1] = second compound 0.0316 µM, first compound 0.0316 µM
[2] = second compound 0.0316 µM, first compound 0.1 µM
[3] = second compound 0.0316 µM, first compound 0.316 µM
[4] = second compound 0.0316 µM, first compound 1 µM
[5] = second compound 0.0316 µM, first compound 3.16 µM
[6] = second compound 0.0316 µM, first compound 10 µM
[7] = second compound 0.1 µM, first compound 0.0316 µM
[8] = second compound 0.1 µM, first compound 0.1 µM
[9] = second compound 0.1 µM, first compound 0.316 µM
[10] = second compound 0.1 µM, first compound 1 µM
[11] = second compound 0.1 µM, first compound 3.16 µM
[12] = second compound 0.1 µM, first compound 10 µM
[13] = second compound 0.316 µM, first compound 0.0316 µM
[14] = second compound 0.316 µM, first compound 0.1 µM
[15] = second compound 0.316 µM, first compound 0.316 µM
[16] = second compound 0.316 µM, first compound 1 µM
[17] = second compound 0.316 µM, first compound 3.16 µM
[18] = second compound 0.316 µM, first compound 10 µM
[19] = second compound 1 µM, first compound 0.0316 µM
[20] = second compound 1 µM, first compound 0.1 µM
[21] = second compound 1 µM, first compound 0.316 µM
[22] = second compound 1 µM, first compound 1 µM
[23] = second compound 1 µM, first compound 3.16 µM
[24] = second compound 1 µM, first compound 10 µM
[25] = second compound 3.16 µM, first compound 0.0316 µM
[26] = second compound 3.16 µM, first compound 0.1 µM
[27] = second compound 3.16 µM, first compound 0.316 µM
[28] = second compound 3.16 µM, first compound 1 µM
[29] = second compound 3.16 µM, first compound 3.16 µM
[30] = second compound 3.16 µM, first compound 10 µM
[31] = second compound 10 µM, first compound 0.0316 µM
[32] = second compound 10 µM, first compound 0.1 µM
[33] = second compound 10 µM, first compound 0.316 µM
[34] = second compound 10 µM, first compound 1 µM
[35] = second compound 10 µM, first compound 3.16 µM
[36] = second compound 10 µM, first compound 10 µM
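Note: spheroids exposed to compounds for seven days before readout.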

CCCS(=O)(=O)Nc1ccc(F)c(C(=O)c2c[nH]c3ncc(-c4ccc(Cl)cc4)cc23)c1F + CC(Nc1ncnc2nc[nH]c12)c1cc2cccc(Cl)c2c(=O)n1-c1ccccc1
5.18: pIC50 (second compound 3.16 µM)
5.19: pIC50 (second compound 0.1 µM)
inactive: viability, T/C [1] 121% | viability, T/C [2] 97.5% | viability, T/C [3] 99.8% | viability, T/C [4] 116% | viability, T/C [5] 131% | viability, T/C [6] 34.7% | viability, T/C [7] 95.8% | viability, T/C [8] 91.7% | viability, T/C [9] 101% | viability, T/C [10] 99.9% | viability, T/C [11] 133% | viability, T/C [12] 17.6% | viability, T/C [13] 82.2% | viability, T/C [14] 79.8% | viability, T/C [15] 92.4% | viability, T/C [16] 104% | viability, T/C [17] 134% | viability, T/C [18] 18.5% | viability, T/C [19] 102% | viability, T/C [20] 107% | viability, T/C [21] 121% | viability, T/C [22] 89.5% | viability, T/C [23] 101% | viability, T/C [24] 16.6% | viability, T/C [25] 121% | viability, T/C [26] 119% | viability, T/C [27] 83.4% | viability, T/C [28] 116% | viability, T/C [29] 117% | viability, T/C [30] 16.2% | viability, T/C [31] 79.5% | viability, T/C [32] 99% | viability, T/C [33] 103% | viability, T/C [34] 91.9% | viability, T/C [35] 99.6% | viability, T/C [36] 17.9%
5.21: pIC50 (second compound 10 µM)
5.10: pIC50 (second compound 0.0316 µM)
5.20: pIC50 (second compound 0.316 µM) | pIC50 (second compound 1 µM)

CC1(C)CCC(Nc2ncc(C(F)(F)F)c(-c3c[nH]c4c(P(C)(C)=O)c(C#N)ccc34)n2)CN1 (stereo not given) + Cc1nc(NC(=O)N2CCCC2C(N)=O)sc1-c1ccnc(C(C)(C)C(F)(F)F)c1
5.34: pIC50 (second compound 0.1 µM)
5.39: pIC50 (second compound 0.316 µM)
5.19: pIC50 (second compound 0.0316 µM)
5.59: pIC50 (second compound 3.16 µM)
5.98: pIC50 (second compound 10 µM)
5.48: pIC50 (second compound 1 µM)
inactive: viability, T/C [1] 108% | viability, T/C [2] 136% | viability, T/C [3] 84% | viability, T/C [4] 72.4% | viability, T/C [5] 71.4% | viability, T/C [6] 39% | viability, T/C [7] 140% | viability, T/C [8] 112% | viability, T/C [9] 83.5% | viability, T/C [10] 72.2% | viability, T/C [11] 55.9% | viability, T/C [12] 40.3% | viability, T/C [13] 119% | viability, T/C [14] 79.5% | viability, T/C [15] 96.2% | viability, T/C [16] 59.4% | viability, T/C [17] 67.1% | viability, T/C [18] 30.9% | viability, T/C [19] 103% | viability, T/C [20] 82% | viability, T/C [21] 86.5% | viability, T/C [22] 67.6% | viability, T/C [23] 55.2% | viability, T/C [24] 22.8% | viability, T/C [25] 80.5% | viability, T/C [26] 83.9% | viability, T/C [27] 73.5% | viability, T/C [28] 55.3% | viability, T/C [29] 52.6% | viability, T/C [30] 25.2% | viability, T/C [31] 77.5% | viability, T/C [32] 63.2% | viability, T/C [33] 45.5% | viability, T/C [34] 57.1% | viability, T/C [35] 44.3% | viability, T/C [36] 14.5%

CC(C)n1nc(-c2ccc3oc(N)nc3c2)c2c(N)ncnc21
80.6 nM [middle of 4 runs]: IC50 (curve of compound)
inactive: viability, T/C (compound 0.000316 µM) 93.8% [middle of 4 runs] | viability, T/C (compound 0.001 µM) 97.1% [middle of 4 runs] | viability, T/C (compound 0.01 µM) 94.7% [middle of 4 runs] | viability, T/C (compound 0.0316 µM) 72.6% [middle of 4 runs] | viability, T/C (compound 0.1 µM) 44.5% [middle of 4 runs]
